# Patent US20110053773A1, “METHODS OF IMPROVING NUTRITIONAL VALUE OF PLANTS” (UNIVERSITY OF TENNESSEE RESEARCH FOUNDATION, priority 2009, published 2011)
# Experiments:
# kale 'Red Russian' [1] = assay: Content analysis of kale: protein, amino acids, fiber, fatty acids, minerals (Example 4, Tables 12-14); type: in vivo; conditions: 28 DA-A, second-listed rate g ai/ha: chlropyrifos ###, chlorothalonil ###, paclobutrazol 9.7, mepiquat-chloride 37, + NIS 0.3 % v/v
# Description: (§1) Greenhouse and laboratory studies were conducted to ascertain the tolerance and nutritional quality differences following postemergence applications of the insecticide chlorpyrifos, the fungicide chlorothalonil, the PGRs mepiquat-chloride and paclobutrazol, and the safeners napthalic anhydride and isoxadifen-ethyl on kale ‘Red Russian’ and basil ‘Genovese’. Visual injury was rated based on general phytotoxicity, chlorosis, and visual stunting and each measurement was based on a percent scale from 0 to 100 where 0 equals no visual response and 100 equals complete plant death. Kale and basil were both harvested approximately 4 weeks after treatments and plants were pooled over replicates for content analysis of crude protein, crude amino acid content, acid detergent fiber, neutral detergent fiber, total fatty acids, and/or key mineral content (including Na, Ca, P, Mg, K, Fe, Mn, Zn, and Cu). In addition, the amounts of key individual amino acids (aspartic acid, threonine, glutamic acid, proline, glycine, cysteine, valine, leucine, isoleucine, methionine, and lysine) and composite classifications of fatty acid (saturated fatty acids, monounsaturated fatty acids, polyunsaturated fatty acids) were also analyzed from these sub-samples for kale (Tables 10-14).
# basil 'Genovese' = assay: Content analysis of basil: protein, minerals (Example 4, Tables 10-11); type: in vivo; conditions: 28 DA-A
# In short: (§2)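 Postemergence greenhouse applications of chlorpyrifos, chlorothalonil, mepiquat-chloride, paclobutrazol, napthalic anhydride or isoxadifen-ethyl. Injury rated visually for phytotoxicity, chlorosis and stunting on a 0–100% scale (0 = no response, 100 = plant death). Plants harvested ~4 weeks after treatment, pooled over replicates for nutrient content analysis.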
# kale ‘Red Russian’ = assay: Yield, fresh weight of kale after insecticide, fungicide and PGRs (Example 4, Table 12); type: in vivo; conditions: 28 DA-A, Untreated Check 106.9
# Description: as §1
# kale 'Red Russian' [2] = assay: Visual injury of kale after insecticide, fungicide, PGRs, safeners (Example 4)
# Description: as §1
# basil ‘Genovese’ = assay: Yield, fresh weight of basil after insecticide, fungicide, PGRs and safeners (Example 4, Table 10); type: in vivo; conditions: DA-A, check 31.8
# In short: as §2
# [3] = rates g ai/ha: chlroprifos 3370, chlorothalonil 7900, paclobutrazol 9.7, mepiquat-chloride 37, Isoxadifen 16, Napthalic anhydride 527, + NIS 0.25 % v/v
# [4] = rates g ai/ha: chlropyrifos 1120, chlorothalonil 2630, paclobutrazol 3.23, mepiquat-chloride 12.3, Isoxadifen 8, Napthalic anhydride 264, + NIS 0.25 % v/v
# [5] = 7 DA-A, rates g ai/ha: chlropyrifos 1120, chlorothalonil 2630, paclobutrazol 3.23, mepiquat-chloride 12.3, + NIS 0.25 % v/v
# [6] = 7 DA-A, rates g ai/ha: chlropyrifos 3370, chlorothalonil 7900, paclobutrazol 9.7, mepiquat-chloride 37, + NIS 0.25 % v/v
# [7] = 14 DA-A, rates g ai/ha: chlropyrifos 1120, chlorothalonil 2630, paclobutrazol 3.23, mepiquat-chloride 12.3, + NIS 0.25 % v/v
# [8] = 14 DA-A, rates g ai/ha: chlropyrifos 3370, chlorothalonil 7900, paclobutrazol 9.7, mepiquat-chloride 37, + NIS 0.25 % v/v
# [9] = 28 DA-A, rates g ai/ha: chlropyrifos 1120, chlorothalonil 2630, paclobutrazol 3.23, mepiquat-chloride 12.3, + NIS 0.25 % v/v
# [10] = 28 DA-A, rates g ai/ha: chlropyrifos 3370, chlorothalonil 7900, paclobutrazol 9.7, mepiquat-chloride 37, + NIS 0.25 % v/v
smiles,measurement,setting,value
CC(C)(C)[C@@H](O)[C@@H](Cc1ccc(Cl)cc1)n1cncn1 (racemic) [paclobutrazol],"Glycine, Percent Increase over the Untreated Check (on a % dry matter basis)",kale 'Red Russian' [1],3 % check
same,"Iso-leucine, Percent Increase over the Untreated Check (on a % dry matter basis)",kale 'Red Russian' [1],6 % check
same,"Leucine, Percent Increase over the Untreated Check (on a % dry matter basis)",kale 'Red Russian' [1],5 % check
same,"Lysine, Percent Increase over the Untreated Check (on a % dry matter basis)",kale 'Red Russian' [1],14 % check
same,"Methionine, Percent Increase over the Untreated Check (on a % dry matter basis)",kale 'Red Russian' [1],2 % check
same,"Proline, Percent Increase over the Untreated Check (on a % dry matter basis)",kale 'Red Russian' [1],7 % check
same,"Threonine, Percent Increase over the Untreated Check (on a % dry matter basis)",kale 'Red Russian' [1],4 % check
same,"Total Amino acids, Percent Increase over the Untreated Check (on a % dry matter basis)",kale 'Red Russian' [1],9 % check
same,"Total Protein, Percent Increase over the Untreated Check (on a % dry matter basis)",kale 'Red Russian' [1],13 % check
same,"Valine, Percent Increase over the Untreated Check (on a % dry matter basis)",kale 'Red Russian' [1],6 % check
same,"ADF, Percent Increase Over the Untreated Check (on a % dry matter basis)",basil 'Genovese'; [3],−12 % check
same,"Calcium, Percent Increase Over the Untreated Check (on a % dry matter basis)",basil 'Genovese'; [3],−18 % check
same,"Copper, Percent Increase Over the Untreated Check (on a % dry matter basis)",basil 'Genovese'; [3],−25 % check
same,"Iron, Percent Increase Over the Untreated Check (on a % dry matter basis)",basil 'Genovese'; [3],4 % check
same,"Magnesium, Percent Increase Over the Untreated Check (on a % dry matter basis)",basil 'Genovese'; [3],−9 % check
same,"Manganese, Percent Increase Over the Untreated Check (on a % dry matter basis)",basil 'Genovese'; [3],−12 % check
same,"NDF, Percent Increase Over the Untreated Check (on a % dry matter basis)",basil 'Genovese'; [3],−8 % check
same,"Phosphorous, Percent Increase Over the Untreated Check (on a % dry matter basis)",basil 'Genovese'; [3],0 % check
same,"Potassium, Percent Increase Over the Untreated Check (on a % dry matter basis)",basil 'Genovese'; [3],−5 % check
same,"Protein, Percent Increase Over the Untreated Check (on a % dry matter basis)",basil 'Genovese'; [3],−9 % check
same,"Sodium, Percent Increase Over the Untreated Check (on a % dry matter basis)",basil 'Genovese'; [3],−17 % check
same,"Soluble protein, Percent Increase Over the Untreated Check (on a % dry matter basis)",basil 'Genovese'; [3],12 % check
same,"Zinc, Percent Increase Over the Untreated Check (on a % dry matter basis)",basil 'Genovese'; [3],−8 % check
same,"ADF, Percent Increase Over the Untreated Check (on a % dry matter basis)",basil 'Genovese'; [4],7 % check
same,"Calcium, Percent Increase Over the Untreated Check (on a % dry matter basis)",basil 'Genovese'; [4],−2 % check
same,"Copper, Percent Increase Over the Untreated Check (on a % dry matter basis)",basil 'Genovese'; [4],8 % check
same,"Iron, Percent Increase Over the Untreated Check (on a % dry matter basis)",basil 'Genovese'; [4],63 % check
same,"Magnesium, Percent Increase Over the Untreated Check (on a % dry matter basis)",basil 'Genovese'; [4],−8 % check
same,"Manganese, Percent Increase Over the Untreated Check (on a % dry matter basis)",basil 'Genovese'; [4],26 % check
same,"NDF, Percent Increase Over the Untreated Check (on a % dry matter basis)",basil 'Genovese'; [4],7 % check
same,"Phosphorous, Percent Increase Over the Untreated Check (on a % dry matter basis)",basil 'Genovese'; [4],2 % check
same,"Potassium, Percent Increase Over the Untreated Check (on a % dry matter basis)",basil 'Genovese'; [4],−1 % check
same,"Protein, Percent Increase Over the Untreated Check (on a % dry matter basis)",basil 'Genovese'; [4],6 % check
same,"Sodium, Percent Increase Over the Untreated Check (on a % dry matter basis)",basil 'Genovese'; [4],−25 % check
same,"Soluble protein, Percent Increase Over the Untreated Check (on a % dry matter basis)",basil 'Genovese'; [4],50 % check
same,"Zinc, Percent Increase Over the Untreated Check (on a % dry matter basis)",basil 'Genovese'; [4],28 % check
same,Yield Fresh weight,"kale ‘Red Russian’; rates g ai/ha: chlropyrifos 1120, chlorothalonil 2630, paclobutrazol 3.23, mepiquat-chloride 12.3, + NIS 0.25 % v/v",107.2 grams
same,Yield Fresh weight,"kale ‘Red Russian’; rates g ai/ha: chlropyrifos 3370, chlorothalonil 7900, paclobutrazol 9.7, mepiquat-chloride 37, + NIS 0.25 % v/v",108.3 grams
same,Phytotoxicity Chlorosis,kale 'Red Russian' [2]; [5],1%
same,Phytotoxicity General,kale 'Red Russian' [2]; [5],10%
same,Phytotoxicity Stunting,kale 'Red Russian' [2]; [5],6%
same,Phytotoxicity Chlorosis,kale 'Red Russian' [2]; [6],0%
same,Phytotoxicity General,kale 'Red Russian' [2]; [6],9%
same,Phytotoxicity Stunting,kale 'Red Russian' [2]; [6],11%
same,Phytotoxicity Chlorosis,kale 'Red Russian' [2]; [7],10%
same,Phytotoxicity General,kale 'Red Russian' [2]; [7],3%
same,Phytotoxicity Stunting,kale 'Red Russian' [2]; [7],19%
same,Phytotoxicity Chlorosis,kale 'Red Russian' [2]; [8],16%
same,Phytotoxicity General,kale 'Red Russian' [2]; [8],6%
same,Phytotoxicity Stunting,kale 'Red Russian' [2]; [8],28%
same,Phytotoxicity Chlorosis,kale 'Red Russian' [2]; [9],3%
same,Phytotoxicity General,kale 'Red Russian' [2]; [9],3%
same,Phytotoxicity Stunting,kale 'Red Russian' [2]; [9],21%
same,Phytotoxicity Chlorosis,kale 'Red Russian' [2]; [10],0%
same,Phytotoxicity General,kale 'Red Russian' [2]; [10],4%
same,Phytotoxicity Stunting,kale 'Red Russian' [2]; [10],19%
same,Yield Fresh weight,basil ‘Genovese’; [4],22.4 grams
same,Yield Fresh weight,"basil ‘Genovese’; rates g ai/ha: chlropyrifos 3370, chlorothalonil 7900, paclobutrazol 9.7, mepiquat-chloride 37, Isoxadifen 16, Napthalic anhydride 527, + NIS 0.25 % v/v",24.4 grams
